Measurements taken from patent US5276023A, “19-nor-steroid esters” (Roussel Uclaf, priority 1989, dated 1994).

Key:
[1] = target: T1, Glucocorticoid receptor (Rattus norvegicus, UniProt P06536); assay: relative bond affinity for the glucocorticoid receptor of rat's thymus; format: binding; settings: tritiated dexamethasone 2.5 nM, RBA=100 (CH)/(CX), reference cold dexamethasone; for relative bond affinity (RBA), Glucocorticoid 4H: 4 hours incubation at 0° C.; for relative bond affinity (RBA), Glucocorticoid 24H: 24 hours incubation at 0° C.
T1 construct: The thymuses were removed and homogenized; from tissue; host or cells: thymus cytosol (105,000 g supernatant) of suprarenalectomized male rats
T1 sequence (P06536 1-795): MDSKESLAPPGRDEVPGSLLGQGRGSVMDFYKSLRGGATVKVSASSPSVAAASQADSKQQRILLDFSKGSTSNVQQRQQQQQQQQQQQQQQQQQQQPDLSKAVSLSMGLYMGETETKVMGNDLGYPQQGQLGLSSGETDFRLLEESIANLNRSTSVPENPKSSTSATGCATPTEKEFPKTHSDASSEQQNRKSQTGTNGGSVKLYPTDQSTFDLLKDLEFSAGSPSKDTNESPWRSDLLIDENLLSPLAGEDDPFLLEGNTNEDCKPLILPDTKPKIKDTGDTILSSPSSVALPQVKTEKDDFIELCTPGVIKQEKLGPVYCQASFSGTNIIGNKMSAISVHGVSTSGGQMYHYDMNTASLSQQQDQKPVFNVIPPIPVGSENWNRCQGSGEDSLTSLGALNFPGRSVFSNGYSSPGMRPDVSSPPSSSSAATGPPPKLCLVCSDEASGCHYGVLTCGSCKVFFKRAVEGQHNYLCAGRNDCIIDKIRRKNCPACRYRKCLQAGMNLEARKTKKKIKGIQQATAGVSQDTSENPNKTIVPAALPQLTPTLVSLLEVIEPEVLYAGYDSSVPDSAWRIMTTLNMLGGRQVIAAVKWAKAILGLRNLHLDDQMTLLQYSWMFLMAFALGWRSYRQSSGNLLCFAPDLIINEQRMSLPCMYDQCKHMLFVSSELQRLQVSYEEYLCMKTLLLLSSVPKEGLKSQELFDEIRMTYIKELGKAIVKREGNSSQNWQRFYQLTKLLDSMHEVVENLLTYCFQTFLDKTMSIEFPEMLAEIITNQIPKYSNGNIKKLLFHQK
Method: (§1) 1) Measurement of the relative bond affinity for the receptors of steroid hormones:
Glucocorticoid receptor of rat's thymus:
Male rats weighing 160 to 200 g were suprarenalectomized and 4 to 8 days after this removal, the animals were killed. The thymuses were removed and homogenized at 0° C. using a Potter teflon-flask in a (TSD) 10 Mm Tris, 0.25M saccharose, 2 mM dithiothreitol, HCl pH 7.4 buffer (1 g of tissue per 10 ml of TSD). The homogenate was then ultracentrifuged at 105,000 g×90 mn at 0° C. Aliquots of the supernatant "cytosol", were incubated at 0° C. for 4 hours and 24 hours with a constant concentration (T=2.5 nM) of tritiated dexamethasone in the presence of increasing concentrations (0-2,500 nM) of cold dexamethasone or of the cold product under test. The concentration of the bonded tritiated dexamethasone (B) was then measured in each incubate by the technique of adsorption with carbon-dextran.
(§2) Calculation of the relative bond affinity:
(§3) The calculation of the relative bond affinity (RBA) was identical for all receptors. The following two curves were drawn: the percentage of bonded tritiated hormone B/T as a function of the logarithm of the concentration of the cold reference hormone and B/T as a function of the logarithm of the concentration of the cold product under test. The straight line of the equation:
(§4) B max=Percentage of bonded tritiated hormone for an incubation of this tritiated hormone at the concentration (T).
(§5) B min=Percentage of bonded tritiated hormone for an incubation of this tritiated hormone at the concentration (T) in the presence of a great excess of cold hormone (2500×10^-9 M).
(§6) The intersections of the straight line I50 and the curves allowed the evaluation of the concentrations of the cold reference hormone (CH) and of the cold product under test (CX) which inhibited by 50% the bonding of the tritiated hormone on the receptor. The relative bond affinity (RBA) of the product under test was determined by the equation RBA=100 (CH)/(CX)

[2] = target: T2, Androgen receptor (Rattus norvegicus, UniProt P15207); assay: relative bond affinity for the androgen receptor of rat's prostate; format: binding; settings: tritiated testosterone, RBA=100 (CH)/(CX), reference cold testosterone; for relative bond affinity (RBA), Androgen 0,5H: half an hour incubation at 0° C.; for relative bond affinity (RBA), Androgen: incubation at 0° C.
T2 construct: The prostates were removed, weighed and homogenized; from tissue; host or cells: prostate cytosol (105,000 g supernatant) of castrated male rats
T2 sequence (P15207 1-902): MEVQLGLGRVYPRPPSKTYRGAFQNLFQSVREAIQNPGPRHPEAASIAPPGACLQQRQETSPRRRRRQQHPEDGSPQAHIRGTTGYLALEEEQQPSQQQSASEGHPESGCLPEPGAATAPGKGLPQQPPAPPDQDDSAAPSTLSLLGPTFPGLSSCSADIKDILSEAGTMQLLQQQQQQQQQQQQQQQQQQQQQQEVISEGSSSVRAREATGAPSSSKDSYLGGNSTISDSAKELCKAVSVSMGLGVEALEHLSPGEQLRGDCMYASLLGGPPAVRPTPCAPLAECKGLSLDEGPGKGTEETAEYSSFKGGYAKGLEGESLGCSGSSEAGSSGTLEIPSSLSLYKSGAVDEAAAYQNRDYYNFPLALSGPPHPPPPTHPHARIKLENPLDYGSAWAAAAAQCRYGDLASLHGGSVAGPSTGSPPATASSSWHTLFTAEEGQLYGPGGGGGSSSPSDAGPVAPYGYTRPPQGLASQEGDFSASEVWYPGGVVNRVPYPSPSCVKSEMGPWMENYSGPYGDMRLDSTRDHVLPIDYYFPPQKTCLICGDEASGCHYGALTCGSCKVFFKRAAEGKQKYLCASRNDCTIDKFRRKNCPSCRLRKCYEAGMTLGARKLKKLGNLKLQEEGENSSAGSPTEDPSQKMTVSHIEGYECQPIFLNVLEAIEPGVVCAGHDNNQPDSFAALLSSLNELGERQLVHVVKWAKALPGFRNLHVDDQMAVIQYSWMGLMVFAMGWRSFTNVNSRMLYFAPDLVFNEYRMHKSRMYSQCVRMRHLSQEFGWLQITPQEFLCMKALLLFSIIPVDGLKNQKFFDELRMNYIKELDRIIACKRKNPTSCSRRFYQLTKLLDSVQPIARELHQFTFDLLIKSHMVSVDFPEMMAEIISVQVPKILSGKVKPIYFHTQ
Method: as §1
Androgen receptor of rat's prostate
Male rats weighing 160 to 200 g were castrated and 24 hours after the castration, the animals were killed. The prostates were removed, weighed and homogenized at 0° C. using a Potter teflon-flask in a (TSDPM) 10 mM Tris, 0.25M saccharose, […] phenylmethanesulfonylfluoride, 20 mM molybdate, 2 mM dithiothreitol, HCl pH 7.4 buffer (1 g of tissue per 5 ml of TSDPM). The homogenate was ultracentrifuged (105,000 g×60 mn) at 0° C. and aliquots of the supernatant "cytosol", were incubated at 0° C. with a constant concentration in the presence of increasing concentrations (0-1000 nM) of cold testosterone or of the product under test. […]
as §2, §3, §4, §5, §6

With `CN(C)c1ccc([C@H]2C[C@@]3(C)[C@@H](CC[C@@]3(O)/C=C\COC(=O)CCC(=O)O)[C@@H]3CCC4=CC(=O)CCC4=C32)cc1` [Example 2, Sodium (Z)-3-[11β-[4-dimethylamino-phenyl]-Δ^4,9-estradien-17β-ol-3-one-17α-yl]-2-propenyl succinate] the “relative bond affinity (RBA), Glucocorticoid 4H” value [1] was 62, the “relative bond affinity (RBA), Glucocorticoid 24H” value [1] was 48 and the “relative bond affinity (RBA), Androgen 0,5H” value [2] was 12. For the same compound, the “relative bond affinity (RBA), Androgen” value [2] was 39.

For `CC#C[C@]1(OC(=O)CCC(=O)O)CC[C@H]2[C@@H]3CCC4=CC(=O)CCC4=C3[C@@H](c3ccc(N(C)C)cc3)C[C@@]21C` [Example 5, 11β-[4-dimethylamino-phenyl]-17-(1-propynyl)-Δ^4,9-estradien-3-one-17β-yl acid succinate], the “relative bond affinity (RBA), Glucocorticoid 4H” value ([1]; listed as EX. 5) was 28, the “relative bond affinity (RBA), Glucocorticoid 24H” value ([1]; listed as EX. 5) was 77 and the “relative bond affinity (RBA), Androgen 0,5H” value ([2]; listed as EX. 5) was 0,6. For the same compound, the “relative bond affinity (RBA), Androgen” value ([2]; listed as EX. 5) was 1.

With `CC#C[C@]1(OC(=O)CCC(=O)O)CC[C@H]2[C@@H]3CCC4=CC(=O)CCC4=C3[C@@H](c3ccc(N(C)C)cc3)C[C@@]21C` [Example 6, Sodium 11β-[4-dimethylamino-phenyl]17α-(1-propynyl)-Δ^4,9 - estradien-3-one-17β-yl succinate] the “relative bond affinity (RBA), Glucocorticoid 4H” value ([1]; listed as EX. 6) was 26, the “relative bond affinity (RBA), Glucocorticoid 24H” value ([1]; listed as EX. 6) was 54 and the “relative bond affinity (RBA), Androgen 0,5H” value ([2]; listed as EX. 6) was 2,2. For the same compound, the “relative bond affinity (RBA), Androgen” value ([2]; listed as EX. 6) was 4,1.

In the case of `CN(C)c1ccc([C@H]2C[C@@]3(C)[C@@H](CC[C@]3(C#CCl)OC(=O)CCC(=O)O)[C@@H]3CCC4=CC(=O)CCC4=C32)cc1` [Example 10, Sodium and 21-chloro-11β-[4-dimethylamino-phenyl]-19-nor-17α-Δ^4,9-pregnadien-3-one-20-yn-17β-yl succinate], the “relative bond affinity (RBA), Glucocorticoid 4H” value [1] was 37, the “relative bond affinity (RBA), Glucocorticoid 24H” value [1] was 77 and the “relative bond affinity (RBA), Androgen 0,5H” value [2] was 1,9. The “relative bond affinity (RBA), Androgen” value [2] was 8,6.

For `CC#C[C@]1(OC(=O)CCC(=O)O)CC[C@H]2[C@@H]3CCC4=CC(=O)CCC4=C3[C@@H](c3ccc(SC)cc3)C[C@@]21C` [Example 12, Sodium and 11β-[4-methylthio-phenyl]-17α-(1-propynyl)-Δ^4,9 estradien-3-one-17β-yl succinate], the “relative bond affinity (RBA), Glucocorticoid 4H” value [1] was 9,5, the “relative bond affinity (RBA), Glucocorticoid 24H” value [1] was 24 and the “relative bond affinity (RBA), Androgen 0,5H” value [2] was 0,8. For the same compound, the “relative bond affinity (RBA), Androgen” value [2] was 0,3.

`CN(C)c1ccc([C@H]2C[C@@]3(C)[C@@H](CC[C@@]3(O)C#CCOC(=O)CCC(=O)O)[C@@H]3CCC4=CC(=O)CCC4=C32)cc1` [Example 4, Sodium and 3-[11β-[4-dimethylamino-phenyl]-Δ^4,9-estradien-17β-ol-3-one-17α-yl]-2-propynyl succinate] was tested, and the “relative bond affinity (RBA), Glucocorticoid 4H” value [1] was 31,5, the “relative bond affinity (RBA), Glucocorticoid 24H” value [1] was 27 and the “relative bond affinity (RBA), Androgen 0,5H” value [2] was 5,1. The “relative bond affinity (RBA), Androgen” value [2] was 2,8.
